Experimental data reported in patent US12577259B2, “PCSK9 antagonist compounds” (MERCK SHARP & DOHME LLC, priority 2019, dated 2026).

Columns and labels:
Format in all cases: binding
PCSK9 [1] = molecular target: T1, PCSK9 (Homo sapiens, UniProt Q8NBP7); test: PCSK9 Alexa FRET Standard TR-FRET assay; conditions: biotinylated PCSK9 0.5 nM, 20 nM AF cyclic peptide Reagent A; Ki calculated from IC50 and KD of AF peptide; read-out: Alexa FRET Stdt TR-FRET
T1 construct: biotin (biotinylated); purchased
Protocol: (§1) The following is a description of the assays used to determine activity of compounds of the invention, and any comparator compounds reported, toward PCSK9 antagonism. Biotinylated PCSK9 was obtained commercially.
A separate solution containing 40 nM of the AlexaFluor tagged cyclic peptide is made in the same buffer system. An Echo is used to transfer 0.750 ul of compound to an assay plate followed by the addition of 15 ul of PCSK9+Stept-Eu and 15 ul of AF peptide. […] The reaction is incubated at room temperature for at least two hours prior to fluorescence measurements using an Envision Multilabel Reader. IC50 values are determined by fitting data to a sigmoidal dose-response curve using nonlinear regression. Ki is then calculated from the Ic50 and the KD of AF cyclic peptide. Counts (B-counts) of the europium-labeled PCSK9 are followed to observe if compounds are adversely PCSK9. A fall off of the B-counts likely indicates a false positive of inhibition. Data from this procedure is reported as “A=‘numerical value’ (nanomolar)”

PCSK9 [2] = molecular target: T1, PCSK9; test: PCSK9 Alexa FRET Plus TR-FRET assay; conditions: biotinylated PCSK9 0.5 nM, 960 nM AF cyclic peptide Reagent B; Ki calculated from IC50 and KD of AF peptide
Protocol: as §1
An Echo is used to transfer 0.075 ul of compound plus 0.675 ul of DMSO to each well of an assay plate followed by the addition of 15 ul of PCSK9+Stept-Eu and 15 ul of AF peptide. […] The reaction is incubated at room temperature for at least two hours prior to fluorescence measurements using an Envision Multilabel Reader. IC50 values are determined by fitting data to a sigmoidal dose-response curve using nonlinear regression. Ki is then calculated from the Ic50 and the KD of AF cyclic peptide. Counts (B-counts) of the europium-labeled PCSK9 are followed to observe if compounds are adversely affecting PCSK9. […] Data from this procedure is reported as “P=‘numerical value’ (nanomolar)”

PCSK9 [3] = molecular target: T1, PCSK9; test: PCSK9 Alexa FRET Ultra TR-FRET assay
Protocol: The following is a description of the assays used to determine activity of compounds of the invention, and any comparator compounds reported, toward PCSK9 antagonism. Biotinylated PCSK9 was obtained commercially. […] An Echo is used to transfer 0.015 ul of compound plus 0.735 ul of DMSO to each well of an assay plate followed by the addition of 15 ul of PCSK9+Stept-Eu and 15 ul of AF peptide. […] The reaction is incubated at room temperature for at least two hours prior to fluorescence measurements using an Envision Multilabel Reader. IC50 values are determined by fitting data to a sigmoidal dose-response curve using nonlinear regression. Ki is then calculated from the Ic50 and the KD of AF cyclic peptide. Counts (B-counts) of the europium-labeled PCSK9 are followed to observe if compounds are adversely affecting PCSK9. […] Data from this procedure is reported as “Ki Ultra=‘numerical value’ (data reported is nanomolar)”

[4] = Ki Ultra, biotinylated PCSK9 0.5 nM, 960 nM AF cyclic peptide, Ki calculated from IC50 and KD of AF peptide, read-out: Alexa FRET Ultra TR-FRET

T1 sequence (Q8NBP7 153-692): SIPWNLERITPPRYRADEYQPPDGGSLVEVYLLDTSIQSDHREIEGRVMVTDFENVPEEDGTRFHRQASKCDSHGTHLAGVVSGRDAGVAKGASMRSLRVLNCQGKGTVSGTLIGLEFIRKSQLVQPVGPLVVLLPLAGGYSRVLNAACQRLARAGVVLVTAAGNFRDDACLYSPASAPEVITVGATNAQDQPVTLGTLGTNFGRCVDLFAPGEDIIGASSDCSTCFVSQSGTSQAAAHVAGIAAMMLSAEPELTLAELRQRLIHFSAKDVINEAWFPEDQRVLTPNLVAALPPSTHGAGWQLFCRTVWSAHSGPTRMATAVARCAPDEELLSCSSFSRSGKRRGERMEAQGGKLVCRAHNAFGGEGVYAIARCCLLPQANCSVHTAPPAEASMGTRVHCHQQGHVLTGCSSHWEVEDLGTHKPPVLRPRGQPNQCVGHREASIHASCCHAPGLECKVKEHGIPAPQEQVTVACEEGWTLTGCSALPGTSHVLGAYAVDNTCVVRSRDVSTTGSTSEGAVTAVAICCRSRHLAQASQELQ

Row | SMILES | Ki (PCSK9 [1]) [nM] | Ki (PCSK9 [2]) [nM] | Ki (PCSK9 [3]; [4]) [nM] | Ki (PCSK9 [3]) [nM]
1 | COc1ccc(C[C@@H]2NC(=O)[C@H]([C@@H](C)O)NC(=O)[C@@H]3[C@@H]4CCN3C(=O)[C@@H]3Cc5cn(c6ccc(F)cc56)Cc5cn(nn5)Cc5cc(ccc5CNC(=O)CCCCCC(=O)N[C@H](CNC(=O)COCCOCCNC(=O)CC[C@H](NC(=O)CCOCCOCC[N+](C)(C)CCNC(=O)COCCOCCNC(=O)COCCOCCNC(=O)CCC(NC(=O)CCCCCCCCCCCCCCCCC(=O)O)C(=O)O)C(=O)O)C(=O)N[C@@H](Cc5cccc(c5)C/C=C/CO4)C(=O)N3)CCNC(=O)[C@]3(C)CCCN3C2=O)cc1 (some centres unmarked) [Example 1] | < 1.26 | 0.205 | 0.488 | 
2 | COc1ccc(C[C@@H]2NC(=O)[C@H]([C@@H](C)O)NC(=O)[C@@H]3[C@@H]4CCN3C(=O)[C@@H]3Cc5cn(c6ccc(F)cc56)Cc5cn(nn5)Cc5cc(ccc5CNC(=O)CCCCCC(=O)N[C@H](CNC(=O)COCCOCC[N+](C)(C)CCNC(=O)COCCOCCNC(=O)COCCOCCNC(=O)CCC(NC(=O)CCCCCCCCOCCCCCCCCC(=O)O)C(=O)O)C(=O)N[C@@H](Cc5cccc(c5)C/C=C/CO4)C(=O)N3)CCNC(=O)[C@]3(C)CCCN3C2=O)cc1 (some centres unmarked) [Example 2] | < 1.26 | 0.024 | 0.14 | 
3 | COc1ccc(C[C@@H]2NC(=O)[C@H]([C@@H](C)O)NC(=O)[C@@H]3[C@@H]4CCN3C(=O)[C@@H]3Cc5cn(c6ccc(F)cc56)Cc5cn(nn5)Cc5cc(ccc5CNC(=O)CCCCCC(=O)N[C@H](CNC(=O)CCOCCOCC[N+](C)(C)CCNC(=O)COCCOCCNC(=O)COCCOCCNC(=O)CC[C@@H](NC(=O)CC[C@@H](NC(=O)CCCCCCCCCCCCCCCCC(=O)O)C(=O)O)C(=O)O)C(=O)N[C@@H](Cc5cccc(c5)C/C=C/CO4)C(=O)N3)CCNC(=O)[C@]3(C)CCCN3C2=O)cc1 [Example 3] | < 1.26 | 0.082 | 0.43 | 
4 | COc1ccc(C[C@@H]2NC(=O)[C@H]([C@@H](C)O)NCC(=O)[C@@H]3[C@@H]4CCN3C(=O)[C@@H]3Cc5cn(c6ccc(F)cc56)Cc5cn(nn5)Cc5cc(ccc5CNC(=O)CCCCCC(=O)N[C@H](CNC(=O)CCOCCOCC[N+](C)(C)CCOCCNC(=O)COCCOCCNC(=O)COCCOCCNC(=O)CC[C@H](NC(=O)CC[C@H](NC(=O)CCCCCCCCCCCCCCC(=O)O)C(=O)O)C(=O)O)C(=O)N[C@@H](Cc5cccc(c5)C/C=C/CO4)C(=O)N3)CCNC(=O)[C@]3(C)CCCN3C2=O)cc1 [Example 4] | < 1.26 | 0.037 | 0.16 | 
5 | COc1ccc(C[C@@H]2NC(=O)[C@H]([C@@H](C)O)NC(=O)[C@@H]3[C@@H]4CCN3C(=O)[C@@H]3Cc5cn(c6ccc(F)cc56)Cc5cn(nn5)Cc5cc(ccc5CNC(=O)CCCCCC(=O)N[C@H](CNC(=O)CCOCCOCC[N+](C)(C)CCNC(=O)COCCOCCNC(=O)COCCOCCNC(=O)CC[C@H](NC(=O)CCCCCCCCCCCCCCC(=O)O)C(=O)O)C(=O)N[C@@H](Cc5cccc(c5)C/C=C/CO4)C(=O)N3)CCNC(=O)[C@]3(C)CCCN3C2=O)cc1 [Example 5] | < 1.26 | 0.036 | 0.13 | 
6 | COc1ccc(C[C@@H]2NC(=O)[C@H]([C@@H](C)O)NC(=O)[C@@H]3[C@@H]4CCN3C(=O)[C@@H]3Cc5cn(c6ccc(F)cc56)Cc5cn(nn5)Cc5cc(ccc5CNC(=O)CCCCCC(=O)N[C@H](CNC(=O)CCOCCOCC[N+](C)(C)CCNC(=O)COCCOCCNC(=O)COCCOCCNC(=O)CC[C@H](NC(=O)CC[C@H](NC(=O)CCCCCCCCCCCCCCCCC(=O)O)C(=O)O)C(=O)O)C(=O)N[C@@H](Cc5cccc(c5)C/C=C/CO4)C(=O)N3)CCNC(=O)[C@]3(C)CCCN3C2=O)cc1 [Example 6] | < 1.26 | 0.049 | 0.36 | 
7 | COc1ccc(C[C@@H]2NC(=O)[C@H]([C@@H](C)OCc3cn(CCNC(=O)CCOCCOCC[N+](C)(C)C)nn3)NC(=O)[C@@H]3[C@@H]4CCN3C(=O)[C@@H]3Cc5cn(c6ccc(F)cc56)CCCCCCN(Cc5ccc(cc5)CCNC(=O)[C@]5(C)CCCN5C2=O)C(=O)CCC(=O)N[C@@H](C)C(=O)N[C@H](CNC(=O)COCCOCCNC(=O)COCCOCCNC(=O)CC[C@H](NC(=O)CCCCCCCCCCCCCCCCC(=O)O)C(=O)O)C(=O)N[C@@H](Cc2cccc(c2)CNC(=O)CO4)C(=O)N3)cc1 [Example 7] | < 1.26 | < 0.006 | 0.004 | 
8 | COc1ccc(C[C@@H]2NC(=O)[C@H]([C@@H](C)OCc3cn(CCNC(=O)COCCOCCNC(=O)COCCOCCNC(=O)CC[C@H](NC(=O)CCCCCCCCCCCCCCCCC(=O)O)C(=O)O)nn3)NC(=O)[C@@H]3[C@@H]4CCN3C(=O)[C@@H]3Cc5cn(c6ccc(F)cc56)CCCCCCN(Cc5ccc(cc5)CCNC(=O)[C@]5(C)CCCN5C2=O)C(=O)CCC(=O)N[C@@H](C)C(=O)N[C@H](CNC(=O)CCOCCOCC[N+](C)(C)C)C(=O)N[C@@H](Cc2cccc(c2)CNC(=O)CO4)C(=O)N3)cc1 [Example 8] | < 1.26 | < 0.006 |  | 0.006
9 | COc1ccc(C[C@@H]2NC(=O)[C@H]([C@@H](C)Oc3cn(CCNC(=O)CCOCCOCC[N+](C)(C)CCNC(=O)COCCOCCNC(=O)COCCOCCNC(=O)CCC(NC(=O)CC[C@H](NC(=O)CCCCCCCCCCCCCCCCC(=O)O)C(=O)O)C(=O)O)nn3)NC(=O)[C@@H]3[C@@H]4CCN3C(=O)[C@@H]3Cc5cn(c6ccc(F)cc56)CCCCCCN(Cc5ccc(cc5)CCNC(=O)[C@]5(C)CCCN5C2=O)C(=O)CCC(=O)N[C@@H](C)C(=O)N[C@H](CNC(=O)CCOCCOCC[N+](C)(C)C)C(=O)N[C@@H](Cc2cccc(c2)C/C=C/CO4)C(=O)N3)cc1 (some centres unmarked) [Example 9] | < 1.26 | < 0.006 |  | 0.003
10 | COc1ccc(C[C@@H]2NC(=O)[C@H]([C@@H](C)O)NC(=O)[C@@H]3[C@@H]4CCN3C(=O)[C@@H]3Cc5cn(c6ccc(F)cc56)CCCCCCN(Cc5ccc(cc5)CCNC(=O)[C@]5(C)CCCN5C2=O)C(=O)CCOCCC(=O)N[C@H](CNC(=O)CCOCCOCC[N+](C)(C)CCNC(=O)COCCOCCNC(=O)COCCOCCNC(=O)CC[C@H](NC(=O)CC[C@H](NC(=O)CCCCCCCCCCCCCCCCC(=O)O)C(=O)O)C(=O)O)C(=O)N[C@@H](Cc2cccc(c2)CNC(=O)CO4)C(=O)N3)cc1 [Example 10] | < 1.26 | < 0.006 |  | 0.004
11 | COc1ccc(C[C@@H]2NC(=O)[C@H]([C@@H](C)O)NC(=O)[C@@H]3[C@@H]4CCN3C(=O)[C@@H]3Cc5cn(c6ccc(F)cc56)CCCCCCN(Cc5ccc(cc5)CCNC(=O)[C@]5(C)CCCN5C2=O)C(=O)CCOCCC(=O)N[C@H](CNC(=O)CCOCCOCC[N+](C)(C)CCNC(=O)COCCOCCNC(=O)COCCOCCNC(=O)CCC(NC(=O)CCCCCCCCCCCCCCC(=O)O)C(=O)O)C(=O)N[C@@H](Cc2cccc(c2)CNC(=O)CO4)C(=O)N3)cc1 (some centres unmarked) [Example 11] | < 1.26 | < 0.006 | 0.001 | 
12 | COc1ccc(C[C@@H]2NC(=O)[C@H]([C@@H](C)O)NC(=O)[C@@H]3[C@@H]4CCN3C(=O)[C@@H]3Cc5cn(c6ccc(F)cc56)CCCCCCN(Cc5ccc(cc5)CCNC(=O)[C@]5(C)CCCN5C2=O)C(=O)CCOCCC(=O)N[C@H](CNC(=O)CCOCCOCC[N+](C)(C)CCNC(=O)COCCOCCNC(=O)COCCOCCNC(=O)CC[C@H](NC(=O)CC[C@H](NC(=O)CCCCCCCCCCCCCCC(=O)O)C(=O)O)C(=O)O)C(=O)N[C@@H](Cc2cccc(c2)CNC(=O)CO4)C(=O)N3)cc1 [Example 12] | < 1.26 | < 0.006 | 0.002 | 
13 | COc1ccc(C[C@@H]2NC(=O)[C@H]([C@@H](C)O)NC(=O)[C@@H]3[C@@H]4CCN3C(=O)[C@@H]3Cc5cn(c6ccc(F)cc56)CCCCCCN(Cc5ccc(cc5)CCNC(=O)[C@]5(C)CCCN5C2=O)C(=O)CCCCCC(=O)N[C@H](CNC(=O)CCOCCOCC[N+](C)(C)CCNC(=O)COCCOCCNC(=O)COCCOCCNC(=O)CC[C@H](NC(=O)CCCCCCCCCCCCCCC(=O)O)C(=O)O)C(=O)N[C@@H](Cc2cccc(c2)CNC(=O)CO4)C(=O)N3)cc1 [Example 13] | < 1.26 | < 0.006 |  | 
